In article PMC11723358, “Nelumbo nucifera Petals Ameliorate Depressive-like Symptom and Cognitive Deficit in Unpredictable Chronic Mild Stress Mouse Model” (Nutrients, 2024) one finds IC50 and inhibition data, which are given here for four compounds.

One may read the IC50 as the concentration that gives 50% inhibition. High values mean a need for much substance, low ones inhibition by little substance. One may read the inhibition as how much of the control response was suppressed.

Assay in all cases: fluorescence, kynuramine to 4-hydroxyquinoline
Format in all cases: biochemical

Assay [1] concerns the target T1, MAO-A (Homo sapiens, UniProt P21397).
T1 construct: gene MAOA; human recombinant enzyme
T1 sequence (P21397 1-527): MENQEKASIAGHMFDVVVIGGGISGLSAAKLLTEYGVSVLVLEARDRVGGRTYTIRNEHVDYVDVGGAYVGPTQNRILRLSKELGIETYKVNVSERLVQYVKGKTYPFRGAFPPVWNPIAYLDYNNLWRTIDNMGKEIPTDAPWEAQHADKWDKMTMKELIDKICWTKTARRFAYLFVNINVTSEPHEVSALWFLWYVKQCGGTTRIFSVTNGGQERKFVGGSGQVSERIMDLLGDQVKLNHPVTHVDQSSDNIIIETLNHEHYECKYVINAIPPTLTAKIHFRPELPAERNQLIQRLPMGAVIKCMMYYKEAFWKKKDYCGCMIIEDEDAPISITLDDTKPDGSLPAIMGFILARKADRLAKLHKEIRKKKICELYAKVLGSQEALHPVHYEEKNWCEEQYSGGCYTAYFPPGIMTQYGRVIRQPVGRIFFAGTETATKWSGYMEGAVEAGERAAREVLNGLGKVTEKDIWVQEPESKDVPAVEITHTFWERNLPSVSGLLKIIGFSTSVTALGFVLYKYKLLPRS

The target of assay [2] is T2, MAO-B (Homo sapiens, UniProt P27338).
T2 construct: gene MAOB; human recombinant enzyme
T2 sequence (P27338 2-520): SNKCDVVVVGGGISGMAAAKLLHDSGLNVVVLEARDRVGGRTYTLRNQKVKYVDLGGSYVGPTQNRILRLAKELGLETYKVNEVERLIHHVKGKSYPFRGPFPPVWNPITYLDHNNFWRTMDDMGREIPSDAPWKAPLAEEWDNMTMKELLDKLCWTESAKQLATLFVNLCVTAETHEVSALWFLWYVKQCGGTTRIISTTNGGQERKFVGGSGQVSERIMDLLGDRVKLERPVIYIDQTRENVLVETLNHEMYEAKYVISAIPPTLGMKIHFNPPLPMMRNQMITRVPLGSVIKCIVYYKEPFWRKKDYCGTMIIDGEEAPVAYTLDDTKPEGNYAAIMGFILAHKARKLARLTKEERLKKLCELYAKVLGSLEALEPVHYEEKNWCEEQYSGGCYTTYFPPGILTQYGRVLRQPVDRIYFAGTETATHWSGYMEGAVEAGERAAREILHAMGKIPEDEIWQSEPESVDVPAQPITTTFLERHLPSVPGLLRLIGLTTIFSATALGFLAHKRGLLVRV

Assay [3] concerns the target T2, MAO-B. Particulars: read-out: % inhibition at 1000 μM. From the text: fluorescence, kynuramine to 4-hydroxyquinoline on MAO-B

In the case of `O=c1c(O[C@@H]2O[C@H](CO)[C@H](O)[C@H](O)[C@H]2O)c(-c2ccc(O)cc2)oc2cc(O)cc(O)c12` [compound 2, trifolin], the IC50 in assay [1] was determined as 578.4 ± 2.01 µM; in assay [2], 860.7 ± 3.7 µM.

As for `C[C@@H]1O[C@@H](O[C@H]2[C@H](Oc3c(-c4ccc(O)cc4)oc4cc(O)cc(O)c4c3=O)O[C@H](CO)[C@@H](O)[C@@H]2O)[C@H](O)[C@H](O)[C@H]1O` [compound 3, kaempferol-3-neohesperidoside], the IC50 in assay [1] is 108.9 ± 0.21 µM; in assay [2] it was 242.2 ± 0.78 µM.

With `OCCc1ccc(O[C@@H]2O[C@H](CO)[C@@H](O)[C@H](O)[C@H]2O)cc1` [compound 4, icariside D2], the inhibition at 1000 µM in assay [3] came out at 43.5 ± 5.2%. The IC50 in assay [1] turned out to be 584 ± 11.8 µM.

Consider `CC[C@H](CC[C@@H](C)[C@H]1CC[C@H]2[C@@H]3CC=C4C[C@@H](O)CC[C@]4(C)[C@H]3CC[C@]12C)C(C)C` [compound 5, β-sitosterol], for which, in assay [3], the inhibition at 1000 µM came to 20.7 ± 1.8%. 2.8 ± 0.13 µM corresponded to half-maximal inhibition in assay [1] (IC50).
